Where two headings read alike, the source gives them in different places.
Assays:
Type in all cases: in vivo
[1] = system: Dog Delayed Cerebral Vasospasm Model; assay: Effect on dog delayed cerebral vasospasm model (basilar artery diameter by angiography); settings: seventh day, separate administration
Protocol: An adult mongrel dog was anesthetized with pentobarbital and 5 ml of autologous blood was injected into cisterna magna (on the first day). On the third day, 5 ml of autologous blood was injected into cisterna magna under thiamyral anesthesia. Before the injection of autologous blood on the first day and on the seventh day, angiographin was injected into vertebral artery, followed by photographing blood vessel of basilar artery. […] As a control, physiological saline was administered into vein over 30 minutes continuously. After the administration of each drug, the blood vessel was photographed to measure the diameter of basilar artery.

[2] = system: Vasopressin Induced Rat Angina Pectoris Model; settings: half an hour before vasopressin 0.5 U/kg i.v., separate administration
Protocol: Half an hour later, vasopressin (0.5 U/kg) was intravenously administered. The ST segment depression was used as an index showing the degree of a myocardial ischemia. […] ST segment in an electrocardiogram was measured for comparison with a ST segment before the vasopressin administration. […] In addition, occurrence of a myocardial ischemia was observed.

[3] = system: Rat Cerebral Infarction Model; assay: Inhibitory effect of cerebral infarction in rat cerebral infarction model (brain microthromboembolism); settings: 10 mg/kg intraperitoneally once a day until the fourth day, separate administration
Protocol: A rat brain microthromboembolism model described in Stroke, 31, 2245-2255 (2000) was used as a cerebral infarction model. […] After the model was prepared, each drug was administered once a day until the fourth day. On the fifth day, the brain was extracted and the size of a cerebral infarction was histopathologically measured.

COCCOC(=O)C1=C(C)NC(C)=C(C(=O)OC(C)C)C1c1cccc([N+](=O)[O-])c1 (centres unmarked) [Nimodipine, nimodipine]
Basilar artery diameter (diameter before blood injection: 100%) ([1]; 0.1 mg/kg into vein over 30 minutes): 55.7% | Basilar artery diameter (diameter before blood injection: 100%) ([1]; 1 mg/kg into vein over 30 minutes): 58.0%

CC(C)NCC(O)COc1cccc2ccccc12 (centres unmarked) [propranolol]
improvement of ST segment depression (index of myocardial ischemia) ([2]; propranolol 100 mg/kg orally): not improved

O=C([O-])/C=C/c1ccc(Cn2ccnc2)cc1.[Na+] [sodium ozagrel]
inhibition of cerebral infarction (size measured histopathologically, fifth day) [3]: not inhibited

isosorbide nitrate
improvement of ST segment depression (index of myocardial ischemia) ([2]; isosorbide nitrate 30 mg/kg orally): not improved
